Patent US20240041866A1, “PHARMACEUTICAL COMPOSITION” (FUJIFILM TOYAMA CHEMICAL CO., LTD., priority 2020, published 2024)

Assays:
[1] = cited from earlier work
[2] = Test Example 2: Appearance (degree of coloring) of aqueous solution left at 70° C.; format: physicochemical; details: stabilizing component added to aqueous solution of Compound A
Experimental: To examine the stabilizing effect of a stabilizing component, the degree of coloring was determined. […] Subsequently, the color tone of each filtrate was observed visually.

Compound | Results in view of appearance [2] | Water solubility [1]
NC(=O)c1nc(F)c[nH]c1=O [Compound A, 6-fluoro-3-hydroxy-2-pyrazinecarboxamide] | – | low water solubility
O=C(O)CN(CCN(CC(=O)O)CC(=O)O)CC(=O)O [EDTA, ethylenediamine tetraacetic acid] | particularly favorable | –
O=C(O)CN(CCO)CCO [bicine, N,N-bis(2-hydroxyethyl)glycine] | particularly favorable | –

More lines, main results first:

Results in view of appearance [2] | Compound | Water solubility [1]
particularly favorable | O=C(O)CNC(CO)(CO)CO [tricine, N-[tris(hydroxymethyl)methyl]glycine] | –
particularly favorable | NC(CO)(CO)CO [trometamol] | –
